Earlier results as cited in patent US10022348B2, “Topical solution of isotretinoin” (SUN PHARMACEUTICAL INDUSTRIES LIMITED, priority 2009, dated 2018).

System: patients with severe acne
Conditions: oral

Q: Which long-term remission does the source give for `CC1=C(/C=C/C(C)=C/C=C/C(C)=C\C(=O)O)C(C)(C)CCC1` [isotretinoin, 13-cis retinoic acid] here?
A: Its long-term remission is “about 80 % of patients”.
